Assay results published in ChEMBL document CHEMBL5042504 (J Med Chem, 2022).

Tests used:
Histone deacetylase 1 = Histone deacetylase 1 (Homo sapiens, UniProt Q13547); assay: Inhibition of human recombinant HDAC1 using Boc-Lys(acetyl)-AMC substrate incubated for 2 hrs by fluorescence based assay
Histone deacetylase 2 = Histone deacetylase 2 (Homo sapiens, UniProt Q92769); assay: Inhibition of human recombinant HDAC2 using Boc-Lys(acetyl)-AMC substrate incubated for 2 hrs by fluorescence based assay
[1] = molecular target: T1, Protein deacetylase HDAC6 (Homo sapiens, UniProt Q9UBN7); assay: Inhibition of human recombinant HDAC6 using Boc-Lys(acetyl)-AMC substrate incubated for 2 hrs by fluorescence based assay
T1 sequence (Q9UBN7 whole entry): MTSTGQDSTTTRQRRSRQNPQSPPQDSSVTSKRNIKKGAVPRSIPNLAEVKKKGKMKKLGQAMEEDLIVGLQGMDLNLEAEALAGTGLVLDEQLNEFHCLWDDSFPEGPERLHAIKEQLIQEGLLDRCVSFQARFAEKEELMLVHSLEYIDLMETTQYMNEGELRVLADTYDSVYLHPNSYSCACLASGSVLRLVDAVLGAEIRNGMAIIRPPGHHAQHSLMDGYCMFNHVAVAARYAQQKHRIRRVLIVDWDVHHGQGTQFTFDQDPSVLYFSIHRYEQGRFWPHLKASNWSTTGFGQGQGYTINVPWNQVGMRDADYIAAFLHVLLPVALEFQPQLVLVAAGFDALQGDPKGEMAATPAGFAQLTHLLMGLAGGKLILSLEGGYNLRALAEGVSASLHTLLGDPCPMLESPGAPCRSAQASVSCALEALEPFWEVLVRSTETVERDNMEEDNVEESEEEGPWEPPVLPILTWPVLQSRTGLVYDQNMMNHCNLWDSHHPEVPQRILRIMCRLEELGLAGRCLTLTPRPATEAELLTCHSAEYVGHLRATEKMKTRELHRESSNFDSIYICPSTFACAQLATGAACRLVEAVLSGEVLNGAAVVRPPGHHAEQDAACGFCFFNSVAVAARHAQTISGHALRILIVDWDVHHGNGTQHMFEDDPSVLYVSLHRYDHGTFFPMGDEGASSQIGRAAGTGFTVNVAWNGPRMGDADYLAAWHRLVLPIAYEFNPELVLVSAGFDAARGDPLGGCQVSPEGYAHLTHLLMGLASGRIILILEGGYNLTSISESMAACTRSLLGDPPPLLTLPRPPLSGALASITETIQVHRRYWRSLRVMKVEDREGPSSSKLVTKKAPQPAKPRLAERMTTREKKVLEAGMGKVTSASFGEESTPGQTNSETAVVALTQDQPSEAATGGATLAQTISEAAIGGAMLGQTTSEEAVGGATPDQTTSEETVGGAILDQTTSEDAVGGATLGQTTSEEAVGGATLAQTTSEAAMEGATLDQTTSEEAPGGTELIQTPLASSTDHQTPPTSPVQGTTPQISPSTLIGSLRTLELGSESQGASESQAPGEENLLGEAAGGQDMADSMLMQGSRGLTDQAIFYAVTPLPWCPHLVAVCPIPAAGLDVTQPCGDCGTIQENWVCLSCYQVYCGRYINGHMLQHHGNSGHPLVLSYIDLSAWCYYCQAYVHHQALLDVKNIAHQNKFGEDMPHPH

Histone deacetylase 3 = Histone deacetylase 3 (Homo sapiens, UniProt O15379); assay: Inhibition of human recombinant HDAC3 using Boc-Lys(acetyl)-AMC substrate incubated for 2 hrs by fluorescence based assay
MV4-11 = assay: cells; settings: Homo sapiens, MV4-11, 48 h
Description: Antiproliferative activity against human MV4-11 AML cells assessed as cell viability measured after 48 hrs by multiplate reader method

Sequence of Histone deacetylase 2 (Q92769 whole entry): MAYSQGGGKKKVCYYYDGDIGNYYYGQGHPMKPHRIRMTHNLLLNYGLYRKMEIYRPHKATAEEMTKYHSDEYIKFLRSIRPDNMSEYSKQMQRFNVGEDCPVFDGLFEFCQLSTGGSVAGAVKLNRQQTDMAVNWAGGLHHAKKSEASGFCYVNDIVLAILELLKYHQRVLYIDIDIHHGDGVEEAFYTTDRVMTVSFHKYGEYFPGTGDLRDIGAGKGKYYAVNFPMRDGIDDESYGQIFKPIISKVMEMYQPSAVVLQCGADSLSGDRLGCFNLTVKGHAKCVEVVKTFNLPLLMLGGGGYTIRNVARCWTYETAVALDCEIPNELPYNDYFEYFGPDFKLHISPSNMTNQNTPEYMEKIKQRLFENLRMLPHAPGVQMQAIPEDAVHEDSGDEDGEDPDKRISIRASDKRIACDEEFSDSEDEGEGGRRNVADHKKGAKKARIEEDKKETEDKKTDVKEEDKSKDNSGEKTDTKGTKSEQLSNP
Sequence of Histone deacetylase 1 (Q13547 whole entry): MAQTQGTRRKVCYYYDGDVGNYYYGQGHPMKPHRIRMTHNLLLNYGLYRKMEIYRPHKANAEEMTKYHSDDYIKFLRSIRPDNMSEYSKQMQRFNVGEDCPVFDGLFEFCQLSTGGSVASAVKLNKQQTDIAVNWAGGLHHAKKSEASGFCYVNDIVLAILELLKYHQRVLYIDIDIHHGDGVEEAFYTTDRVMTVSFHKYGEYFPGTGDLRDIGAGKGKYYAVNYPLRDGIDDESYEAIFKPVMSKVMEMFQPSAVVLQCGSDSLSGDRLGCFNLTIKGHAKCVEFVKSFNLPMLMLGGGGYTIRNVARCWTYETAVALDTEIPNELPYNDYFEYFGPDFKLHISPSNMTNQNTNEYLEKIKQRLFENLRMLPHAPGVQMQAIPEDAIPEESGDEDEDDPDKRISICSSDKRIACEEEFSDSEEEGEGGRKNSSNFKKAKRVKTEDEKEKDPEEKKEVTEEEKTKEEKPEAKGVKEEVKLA
Sequence of Histone deacetylase 3 (O15379 whole entry): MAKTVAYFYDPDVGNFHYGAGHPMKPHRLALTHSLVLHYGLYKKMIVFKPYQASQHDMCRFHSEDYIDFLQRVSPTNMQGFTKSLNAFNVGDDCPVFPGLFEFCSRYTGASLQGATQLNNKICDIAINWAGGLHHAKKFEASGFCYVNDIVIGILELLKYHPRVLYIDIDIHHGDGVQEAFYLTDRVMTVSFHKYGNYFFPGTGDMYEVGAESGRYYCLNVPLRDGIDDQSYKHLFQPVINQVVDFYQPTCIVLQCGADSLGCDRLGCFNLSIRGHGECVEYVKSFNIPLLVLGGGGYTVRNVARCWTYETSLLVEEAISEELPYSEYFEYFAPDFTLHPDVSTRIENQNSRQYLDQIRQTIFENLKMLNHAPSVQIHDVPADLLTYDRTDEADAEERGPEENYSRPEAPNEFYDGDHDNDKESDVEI

Row | IC50 (Histone deacetylase 1) | IC50 (Histone deacetylase 2) | IC50 [1] | IC50 (Histone deacetylase 3) | IC50 (MV4-11) | SMILES
1 | 58.3 nM | 186 nM | > 10000 nM | 1.31 nM | 66.5 nM | CCCNNC(=O)c1ccc(CNC(=O)c2cc3cc(Br)ccc3[nH]2)cc1
2 | 4.66 nM | 16.4 nM | > 10000 nM | 0.58 nM | 37.5 nM | CCCNNC(=O)c1ccc(CNC(=O)c2cc3cc(OC)ccc3[nH]2)cc1
3 | 8.8 nM | 30.9 nM | > 10000 nM | 1.48 nM | 45.9 nM | CCCNNC(=O)c1ccc(CNC(=O)c2cc3ccccc3cn2)cc1
4 | 20.8 nM | 30.1 nM | > 10000 nM | 1.55 nM | 74 nM | CCCNNC(=O)c1ccc(CNC(=O)c2ccc3ccncc3c2)cc1
5 | 9.73 nM | 42 nM | > 10000 nM | 1.31 nM | 43.6 nM | CCCNNC(=O)c1ccc(CNC(=O)c2nc3ccccc3s2)cc1
6 | 11.3 nM | 33.4 nM | > 10000 nM | 1.44 nM | 53.1 nM | CCCNNC(=O)c1ccc(CNC(=O)c2nc3ccccc3[nH]2)cc1
7 | – | – | > 10000 nM | – | – | CCCNNC(=O)c1ccc(CNC(=O)c2cc3ccccc3s2)cc1
8 | 8.22 nM | 27.9 nM | > 10000 nM | 0.83 nM | 56.5 nM | CCCNNC(=O)c1ccc(CNC(=O)c2cc3cc(F)ccc3o2)cc1
9 | 13.8 nM | 46.1 nM | > 10000 nM | 0.66 nM | 37.7 nM | CCCNNC(=O)c1ccc(CNC(=O)c2cc3cc(Cl)ccc3[nH]2)cc1
10 | 10.7 nM | 57.3 nM | > 10000 nM | 0.9 nM | 57.8 nM | CCCNNC(=O)c1ccc(CNC(=O)c2ccc3ccccc3n2)cc1
11 | 11.7 nM | 35.8 nM | > 10000 nM | 0.85 nM | 53.8 nM | C=CCOc1ccc2oc(C(=O)NCc3ccc(C(=O)NNCCC)cc3)cc2c1
12 | 17.1 nM | 39.6 nM | > 10000 nM | 1.03 nM | 64.1 nM | CCCNNC(=O)c1ccc(CNC(=O)c2ccc3cnccc3c2)cc1
